In patent publication US5516525A, “Vitamin D derivative feed compositions and methods of use” (University of Georgia Research Foundation, Inc., priority 1994, dated 1996):
Read-outs that look alike come from different tables or passages of the source.

Tests used:
tibial dyschondroplasia [1] = settings: cited from earlier work; for tibial dyschondroplasia (effect of dietary factor): chickens, dietary level; for incidence of tibial dyschondroplasia: 20 ng/day, Edwards, J. Nutr. 114:1001 (1984)
calcium = settings: in vivo; cited from earlier work
tibial dyschondroplasia [2] = type: in vivo, chicken (Peterson X Arbor Acre cockerels); settings: for #3/No. / % N2 + 3 / % N3: Study 3; for #3/No. / % N2 + 3 / % N3 / #3/total / % #3: D3 […], derivatives 10 μg/kg feed; for incidence and severity of tibial dyschondroplasia: in words, Example 2
Method: Deep irregularities are apparent.
(§1) The basal diet used is described above in Table 2. Disulfiram was added to the basal diet of some chickens as indicated in Table 10 at a level of 30 mg/kg of feed.
(§2) After the tibia was scored for incidence and severity of tibial dyschondroplasia, the left tibia was removed for a bone ash determination on the fat-free dried bone.

bone ash [3] = assay: bone ash of left tibia (Example 1); settings: in words
Text: The left tibia was removed for bone ash determination on the fat-free bone.

[4] = 16-day body weight and gain:feed (Example 2); type: in vivo, chicken (Peterson X Arbor Acre cockerels); settings: D3 […], derivatives 10 μg/kg feed
Method: The basal diet used is described above in Table 2. Disulfiram was added to the basal diet of some chickens as indicated in Table 10 at a level of 30 mg/kg of feed. […]

^47 Ca retention = assay: 47Ca absorption and retention (Example 2); type: in vivo, chicken (Peterson X Arbor Acre cockerels); set-up: key to ^47 Ca intercept / Ca^47 Ret.: % of administered 47Ca retained (y-intercept of retention-vs-days plot); settings: for Ca^47 Ret. / Ca^47 slope: Study 3; for Ca^47 Ret. / Ca^47 slope / ^47 Ca intercept / ^47 Ca slope: D3 […], derivatives 10 μg/kg feed; for ^47 Ca intercept / ^47 Ca slope: Study 2
Method: Absorption and retention of dietary calcium was measured by orally dosing chicks with ^47 Ca and then measuring the total body radioactive count, as described in Suso and Edwards, "A Study of Techniques for Measuring ^65 Zn Absorption and Biological Half-life in the Chicken," Poult. Sci. 47:991-999 (1968). Specifically, ten seven day old birds in one pen under the indicated dietary treatments were dosed orally with 0.5 milliliter of water solution containing 0.5 microcuries of ^47 Ca and 0.1 to 1.0 micrograms of calcium. The total body radioactive content of the individual chickens was determined immediately following dosing, and also on days 7, 9, 12 and 14 following dosing. A plot of percent administered ^47 Ca which was retained versus number of days yields a line which has a slope corresponding to the half-life of the radioactive calcium in the chicken, and a y-intercept that corresponds to the amount of calcium absorbed by the chicken. Effect of vitamin D3 derivatives on Tibial Dyschondroplasia.

[5] = 9-day body weight, feed consumption and gain:feed (Example 1); settings: in words, Example 1
Method: Newly hatched Petersen X Arbor Acre cockerels obtained from a commercial hatchery were used. Animals were housed in electrically heated Petersime battery brooders with wire-mesh floors located in a room in which the temperature was maintained at 22° C., fluorescent lights were on 24 hours each day in the room and the cages, and sunlight was present during the day from large windows. No attempt was made to limit the natural production of vitamin D3. Feed and water were available to the chickens at all times.
Ten newly hatched birds were randomly placed in each section of the Petersime batteries until the birds were nine days old. The measurements described below were calculated on a pen basis; all statistical analyses were conducted on pen averages. Blood samples were taken by cardiac puncture with heparinized syringes from one randomly chosen bird from each pen on the ninth day before weighing the birds.
At nine days of age, pen body weights were obtained for all birds and their feed consumption was recorded. […] Briefly, using a three week old chicken as the reference animal, a score of zero indicates normal cartilage which is narrow with little irregularities. […] Deep irregularities are apparent. A score of three indicates a large mass of cartilage in the proximal end of the tibia. The birds were also scored for phosphorus deficient rickets at the same time they were scored for tibial dyschondroplasia. Chickens which had normal proliferating prehypertrophied zone and a lengthened metaphyseal primary spongiosa were classified as phosphorus deficient rickets. The left tibia was removed for bone ash determination on the fat-free bone.

bone ash [6] = assay: bone ash (Example 2); type: in vivo, chicken (Peterson X Arbor Acre cockerels); settings: in words
Method: as §1, §2

[7] = Study 2, with disulfiram 30 mg/kg feed
[8] = Study 1, with disulfiram 30 mg/kg feed
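Throughout, for #3/No.: score 3 means a large cartilage mass in the proximal tibia.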
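Throughout, for #3/total: score 3 means a large cartilage mass in the proximal tibia.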
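Throughout, for % #3: score 3 means a large cartilage mass in the proximal tibia.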
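Throughout, for % N3: score 3 means a large cartilage mass in the proximal tibia.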

chloride
tibial dyschondroplasia (effect of dietary factor) (tibial dyschondroplasia [1]): increased the incidence of the abnormality

magnesium
tibial dyschondroplasia (effect of dietary factor) (tibial dyschondroplasia [1]): decrease the incidence of tibial dyschondroplasia

CN(C)C(=S)SSC(=S)N(C)C [thiruram, bis(dimethylthiocarbamyl)disulfide, reference compound]
tibial dyschondroplasia (effect of dietary factor) (tibial dyschondroplasia [1]): causes tibial dyschondroplasia
calcium absorption / loss (calcium): rapid loss of intramuscularly-injected calcium

C=C1/C(=C\C=C2/CCC[C@]3(C)[C@@H]([C@H](C)CCCC(C)C)CC[C@@H]23)C[C@@H](O)C[C@@H]1O [1-OHD3, 1-hydroxycholecalciferol]
#3/No. (tibial dyschondroplasia [2]): 3/60
% N2 + 3 (tibial dyschondroplasia [2]): 17%
% N3 (tibial dyschondroplasia [2]): 5%
#3/total (tibial dyschondroplasia [2]; Study 4): 8/57
% #3 (tibial dyschondroplasia [2]; Study 4): 15%
incidence and severity of tibial dyschondroplasia (tibial dyschondroplasia [2]): significant reduction in the incidence of tibial dyschondroplasia
bone ash (bone ash [3]): increased
16 Day Wt. ([4]; Study 3): 423
Gain/feed ([4]; Study 3): .661
16 Day wt. ([4]; Study 4): 372
Gain/feed ([4]; Study 4): .655
Ca^47 Ret. (^47 Ca retention): 75
Ca^47 slope (^47 Ca retention): -.95
nine day weight [5]: increased

C=C1CC[C@H](O)C/C1=C/C=C1\CCC[C@]2(C)[C@@H]([C@H](C)CCCC(C)(C)O)CC[C@@H]12 [25-OHD3, 25-hydroxycholecalciferol]
#3/total (tibial dyschondroplasia [2]; Study 1, basal diet): 1/28
#3/total (tibial dyschondroplasia [2]; Study 2, basal diet): 7/30
#3/total (tibial dyschondroplasia [2]; [7]): 11/28
incidence and severity of tibial dyschondroplasia (tibial dyschondroplasia [2]): reduced the incidence of tibial dyschondroplasia
16 Day wt. ([4]; Study 1, basal diet): 395
Gain:Feed ([4]; Study 1, basal diet): .667
16 Day wt. [4, 8]: 398
Gain:Feed [4, 8]: .706
16 day wt ([4]; Study 2, basal diet): 392
Gain:Feed ([4]; Study 2, basal diet): .713
16 day wt [4, 7]: 395
Gain:Feed [4, 7]: .728
^47 Ca intercept (^47 Ca retention; basal diet): 72
^47 Ca intercept (^47 Ca retention; with disulfiram 30 mg/kg feed): 74
^47 Ca slope (^47 Ca retention; with disulfiram 30 mg/kg feed): -1.67

C=C1/C(=C\C=C2/CCC[C@]3(C)[C@@H]([C@H](C)CC[C@@H](F)C(C)(C)O)CC[C@@H]23)C[C@@H](O)C[C@@H]1O [1,25-(OH)2-24R-FD3, 1,25-dihydroxy-24-fluorocholecalciferol]
#3/No. (tibial dyschondroplasia [2]): 3/60
% N2 + 3 (tibial dyschondroplasia [2]): 15%
% N3 (tibial dyschondroplasia [2]): 5%
#3/total (tibial dyschondroplasia [2]; Study 4): 9/56
% #3 (tibial dyschondroplasia [2]; Study 4): 16%
incidence and severity of tibial dyschondroplasia (tibial dyschondroplasia [2]): significant reduction in the incidence of tibial dyschondroplasia
16 Day Wt. ([4]; Study 3): 413
Gain/feed ([4]; Study 3): .663
16 Day wt. ([4]; Study 4): 360
Gain/feed ([4]; Study 4): .661
Ca^47 Ret. (^47 Ca retention): 72
Ca^47 slope (^47 Ca retention): -.47

C=C1/C(=C\C=C2/CCC[C@]3(C)[C@@H]([C@H](C)CCCC(C)(C)O)CC[C@@H]23)C[C@@H](O)C[C@@H]1O [1,25-(OH)2 D3, 1,25-dihydroxycholecalciferol]
#3/total (tibial dyschondroplasia [2]; Study 1, basal diet): 1/29
#3/total (tibial dyschondroplasia [2]; [8]): 4/30
#3/total (tibial dyschondroplasia [2]; Study 2, basal diet): 2/30
#3/total (tibial dyschondroplasia [2]; [7]): 6/30
#3/No. (tibial dyschondroplasia [2]): 5/58
% N2 + 3 (tibial dyschondroplasia [2]): 16%
% N3 (tibial dyschondroplasia [2]): 9%
#3/total (tibial dyschondroplasia [2]; Study 4): 4/52
% #3 (tibial dyschondroplasia [2]; Study 4): 8%
bone ash (bone ash [3]): increased
incidence of tibial dyschondroplasia (tibial dyschondroplasia [1]): no effect on the incidence of tibial dyschondroplasia
16 Day wt. ([4]; Study 1, basal diet): 421
Gain:Feed ([4]; Study 1, basal diet): .670
16 Day wt. [4, 8]: 426
Gain:Feed [4, 8]: .701
16 day wt ([4]; Study 2, basal diet): 361
Gain:Feed ([4]; Study 2, basal diet): .661
16 day wt [4, 7]: 377
Gain:Feed [4, 7]: .684
16 Day Wt. ([4]; Study 3): 421
Gain/feed ([4]; Study 3): .66
16 Day wt. ([4]; Study 4): 355
Gain/feed ([4]; Study 4): .652
^47 Ca intercept (^47 Ca retention; basal diet): 84
^47 Ca slope (^47 Ca retention; basal diet): -2.85
^47 Ca intercept (^47 Ca retention; with disulfiram 30 mg/kg feed): 70
^47 Ca slope (^47 Ca retention; with disulfiram 30 mg/kg feed): -2.11
Ca^47 Ret. (^47 Ca retention): 78
Ca^47 slope (^47 Ca retention): -.72
dietary ^47 Ca absorbed (^47 Ca retention; in words, Example 2): significantly more dietary ^47 Ca absorbed
half-life, or retention, of the calcium (^47 Ca retention; in words, Example 2): increasing the half-life
bone ash (bone ash [6]): increases bone ash
nine day weight [5]: increased

C=C1/C(=C\C=C2/CCC[C@]3(C)[C@@H]([C@H](C)CCC(O)C(C)(C)O)CC[C@@H]23)C[C@@H](O)C[C@@H]1O (stereo partly shown) [1,24,25-(OH)2 D3, 1,24,25-trihydroxycholecalciferol]
#3/No. (tibial dyschondroplasia [2]): 6/60
% N2 + 3 (tibial dyschondroplasia [2]): 22%
% N3 (tibial dyschondroplasia [2]): 10%
#3/total (tibial dyschondroplasia [2]; Study 4): 8/57
% #3 (tibial dyschondroplasia [2]; Study 4): 14%
incidence and severity of tibial dyschondroplasia (tibial dyschondroplasia [2]): significant reduction in the incidence of tibial dyschondroplasia
16 Day Wt. ([4]; Study 3): 428
Gain/feed ([4]; Study 3): .688
16 Day wt. ([4]; Study 4): 376
Gain/feed ([4]; Study 4): .681
Ca^47 Ret. (^47 Ca retention): 76
Ca^47 slope (^47 Ca retention): -.77

calcium
tibial dyschondroplasia (effect of dietary factor) (tibial dyschondroplasia [1]): retards development of the lesion

C=C1CC[C@H](O)C/C1=C/C=C1\CCC[C@]2(C)[C@@H]([C@H](C)CCCC(C)C)CC[C@@H]12 [D3, cholecalciferol, reference compound]
#3/total (tibial dyschondroplasia [2]; Study 1, basal diet): 4/27
#3/total (tibial dyschondroplasia [2]; [8]): 9/27
#3/total (tibial dyschondroplasia [2]; Study 2, basal diet): 5/29
#3/total (tibial dyschondroplasia [2]; [7]): 12/30
#3/No. (tibial dyschondroplasia [2]): 13/59
% N2 + 3 (tibial dyschondroplasia [2]): 34%
% N3 (tibial dyschondroplasia [2]): 22%
#3/total (tibial dyschondroplasia [2]; Study 4): 20/58
% #3 (tibial dyschondroplasia [2]; Study 4): 35%
16 Day wt. ([4]; Study 1, basal diet): 451
Gain:Feed ([4]; Study 1, basal diet): .734
16 Day wt. [4, 8]: 432
Gain:Feed [4, 8]: .708
16 day wt ([4]; Study 2, basal diet): 368
Gain:Feed ([4]; Study 2, basal diet): .647
16 day wt [4, 7]: 374
Gain:Feed [4, 7]: .666
16 Day Wt. ([4]; Study 3): 434
Gain/feed ([4]; Study 3): .709
16 Day wt. ([4]; Study 4): 383
Gain/feed ([4]; Study 4): .701
^47 Ca intercept (^47 Ca retention; basal diet): 77
^47 Ca slope (^47 Ca retention; basal diet): -1.88
^47 Ca intercept (^47 Ca retention; with disulfiram 30 mg/kg feed): 72
^47 Ca slope (^47 Ca retention; with disulfiram 30 mg/kg feed): -1.97
Ca^47 Ret. (^47 Ca retention): 75
Ca^47 slope (^47 Ca retention): -1.13

CCN(CC)C(=S)SSC(=S)N(CC)CC [Disulfiram, bis(diethylthiocarbamyl)disulfide, reference compound]
#3/total (tibial dyschondroplasia [2]; [8]): 16/30
#3/total (tibial dyschondroplasia [2]; [7]): 14/28
16 Day wt. [4, 8]: 433
Gain:Feed [4, 8]: .750
16 day wt [4, 7]: 394
Gain:Feed [4, 7]: .671
^47 Ca intercept (^47 Ca retention; with disulfiram 30 mg/kg feed): 73
^47 Ca slope (^47 Ca retention; with disulfiram 30 mg/kg feed): -1.59
calcium absorption / loss (calcium): lowers the absorption of calcium

C=C1CC[C@H](O)C/C1=C/C=C1\CCC[C@]2(C)[C@@H]([C@H](C)CCC(O)C(C)(C)O)CC[C@@H]12 (stereo partly shown) [24,25-(OH)2 D3, 24,25-dihydroxycholecalciferol, reference compound]
#3/No. (tibial dyschondroplasia [2]): 17/59
% N2 + 3 (tibial dyschondroplasia [2]): 53%
% N3 (tibial dyschondroplasia [2]): 29%
#3/total (tibial dyschondroplasia [2]; Study 4): 25/56
% #3 (tibial dyschondroplasia [2]; Study 4): 46%
incidence and severity of tibial dyschondroplasia (tibial dyschondroplasia [2]): not effective in preventing the development of tibial dyschondroplasia
bone ash (bone ash [3]): no effect
incidence of tibial dyschondroplasia (tibial dyschondroplasia [1]): no effect on the incidence of tibial dyschondroplasia
16 Day Wt. ([4]; Study 3): 424
Gain/feed ([4]; Study 3): .696
16 Day wt. ([4]; Study 4): 351
Gain/feed ([4]; Study 4): .663
Ca^47 Ret. (^47 Ca retention): 67
Ca^47 slope (^47 Ca retention): -.77
nine day weight [5]: no effect

[2H]C([2H])([2H])C(O)(CCC[C@@H](C)[C@H]1CC[C@H]2/C(=C/C=C3/C[C@@H](O)C[C@H](O)C3=C)CCC[C@]12C)C([2H])([2H])[2H] [1,25-(OH)2-26,27[^1 H]6 D3, 1,25-dihydroxy-26,27-hexadeuterocholecalciferol]
#3/No. (tibial dyschondroplasia [2]): 0/60
% N2 + 3 (tibial dyschondroplasia [2]): 8%
% N3 (tibial dyschondroplasia [2]): 0%
#3/total (tibial dyschondroplasia [2]; Study 4): 4/58
% #3 (tibial dyschondroplasia [2]; Study 4): 7%
incidence and severity of tibial dyschondroplasia (tibial dyschondroplasia [2]): significant reduction in the incidence of tibial dyschondroplasia
16 Day Wt. ([4]; Study 3): 422
Gain/feed ([4]; Study 3): .687
16 Day wt. ([4]; Study 4): 360
Gain/feed ([4]; Study 4): .646
Ca^47 Ret. (^47 Ca retention): 80
Ca^47 slope (^47 Ca retention): .15
